Reference: patent US10596150B2, “Antifungal agents” (F2G LIMITED, priority 2014, dated 2020)

Tests used:
S. aurantiacum = assay: Analogous MIC experiments; assay type: cell-based
Description: (§1) Between 1 and 5 mgs of the compound were accurately weighed out into a sterile Eppendorf tube. The compound was dissolved in DMSO to give a solution containing 5 mg/mL. Tubes were stored at −20° C. until required.
(§2) On the day of testing thawed solutions were vortex mixed to ensure homogeneity. 30 μL of solution was removed and added to 570 μL of sterile water in a separate sterile Eppendorf. The thoroughly mixed solution was used to prepare a series of doubling dilutions in water, in a deep well plate. Thirteen replicate plates were prepared using a Minitrak by aspirating 20 μL from each well into eleven clear polystyrene 96 well plates.
(§3) Spores of Aspergillus and Scedosporium were harvested from cultures grown on Sabarauds agar for 5 days, and resuspended in PBS/Tween 80 to approx 1×10^7 cfu/mL. Each organism suspension was diluted in RPMI medium, containing 2% glucose and 0.135 M MOPS buffer (pH 7.0) to 0.5-2×10^4 cfu/mL. 80 μL of an organism suspension was added to each well of the plate containing drug dilutions.
(§4) This produced MIC plates with a drug range 50-0.05 mg/L and organism inocula of 1-2×10^4 cfu/mL. All plates were incubated for 24-48 h at 35° C. Growth was assessed by monitoring the optical density at 485 nm for each well. The MIC of a compound is the lowest drug concentration that inhibits growth of an organism by >80% compared with a drug free control.

S. boydii = assay: Analogous MIC experiments; assay type: cell-based
Description: as §1, §2, §3, §4

S. dehoogii = assay: Analogous MIC experiments; assay type: cell-based
Description: as §1, §2, §3, §4

[1] = test system: A. fumigatus strain A1163; assay: Murine survival model of Aspergillus fumigatus infection (survival, kidney burden, serum galactomannan); assay type: in vivo, male CD-1 mice; conditions: for serum galactomannan indices: FIG. 6; for End of study tissue burden (kidney): surviving animals; for survival at end of study: therapy from 24 h post infection for 8 days
Description: Murine survival models are frequently used to assess the efficacy of antifungal drugs against Aspergillus. The models used in the development of Example 1 were carried out at Euprotec Ltd (Manchester) a contract research organisation (CRO) with extensive experience in the evaluation of antifungal drugs. The typical model involves the use of groups of 6-10 male CD-1 mice per treatment group. Mice are immunosuppressed with 200 mg/kg cyclophosphamide injected intraperitoneal 3 days prior to infection. A. fumigatus strain A1163 is cultured on Sabourauds agar for 4-6 days at 35° C. Spores are harvested in phosphate buffered saline (PBS)/Tween, the suspension diluted and the number of spores enumerated. Mice are then infected with an intravenous injection of A. fumigatus spores given through the lateral tail vein. The typical inoculum is 6-8×10^4 cfu/mouse and is sufficient to kill all untreated animals by Day 4-6. The animals die of IA and Aspergillus organisms can be detected in many body tissues. Treatment is typically commenced soon after infection but delays of up to 24 h following infection produce a more challenging model. Treatment is continued for 7-9 days. Treatment may be up to 3 times daily using an oral dosing. Following cessation of treatment, animals are observed for 1-2 days, and then sacrificed. Relevant controls treated with oral drug-free vehicle are always included; ideally there should be no survivors in this group. A positive control consisting of an antifungal drug such as Reference Example 10 was used. This compound consistently produces 100% survival at doses of 10 mg/kg b.i.d. dosed by the oral route. Most models are run as temporary neutropenic models where only a single dose of cyclophosphamide is administered.
The fungal burden in the kidney can be determined on animals surviving to the end of the study and this can help provide efficacy discrimination between groups where all animals survive. Tissue burdens are carried out by removing the kidneys from animals when they are culled at the end of the study. These are homogenised in saline and plated onto Sabourauds agar and incubated at 35° C. for 72 h. Aspergillus colonies are counted and the amount of aspergillus per gram of kidney calculated. The results are expressed as colony forming units per gramme (cfu/g). […] However, data from studies where tissue burden has been carried out on untreated animals at day 4 or 5 has shown that tissue burdens are typically in excess of 20,000 cfu/g and may exceed 100,000 cfu/g in some studies.
In some of the survival studies described below serum samples were collected from surviving mice at the end of the study or on mice that succumbed to infection during the study to examine the effect of Example 1 on galactomannan levels and to see if there was a relationship between galactomannan levels and survival.
The galactomannan assays were carried out on serum samples that had been stored frozen at −80° C. Samples were thawed and assayed using a Platelia Aspergillus Ag enzyme-linked immunosorbent assay (ELISA) kit (Biorad). The assay was modified slightly to take into account the small sample volumes available from mice. If assay results were high a repeat test was carried out on a sample diluted in normal mouse serum. The amount of galactomannan in a sample is presented as a galactomannan index. The mean galactomannan index for each group was calculated and is presented graphically against each treatment regimen.
The survival study carried assessed the dose response of Example 1. Example 1 was dosed orally to A. fumigatus infected mice at 2 dose levels 10 mg/kg b.i.d. and 3 mg/kg b.i.d. Therapy was initiated at 24 h post infection and therapy continued for 8 days. At the end of the study kidney burdens were measured on surviving animals. In addition serum samples were taken at the end of the study from all surviving animals and from each animal that died during the course of the study. […]

L. prolificans FMR 3569 = assay: Lomentospora prolificans FMR 3569 disseminated infection model (survival, tissue burden); assay type: in vivo, Male OF-1 mice; conditions: VRC 25 mg/kg p.o. QD; Example 1 20 mg/k p.o. BID; from day 1 after challenge for 9 days
Description: L. prolificans (also known as Scedosporium prolificans or S. prolificans) was grown on Potato Dextrose Agar (PDA) for 5 days at 35° C. On the day of infection, cultures were flooded with sterile saline and filtered through sterile gauze to remove clumps of conidia and hyphae. The resulting suspensions were adjusted by haemocytometer count and by serial plating to confirm viability.
Male OF-1 mice with a mean weight of 30 g were used in the experiment. Mice were housed in standard boxes with food and water ad libitum.
Mice were rendered neutropenic two days prior to infection by an intraperitoneal (i.p.) injection of 200 mg/kg of cyclophosphamide, and once every 5 days thereafter (Clemons et al, 2005).
Mice were challenged with 5×10^4 CFU/animal of L. prolificans FMR 3569, in a volume of 0.2 ml of sterile saline into the lateral tail vein.
Treatments consisted of (a) voriconazole (VRC) (Vfend; Pfizer S. A., Madrid, Spain) at 25 mg/kg p.o, by gavage QD; (b) Example 1 at 20 mg/k, p.o, by gavage BID; and (c) no treatment. From 3 days before infection, mice that received VRC were given grapefruit juice instead of water (Sugar & Liu, 2001). All treatments began 1 day after challenge, and the therapy lasted for 9 days. Controls received no treatment.
For survival studies groups of 10 mice were randomly established for each therapy. Mortality was recorded daily until the end of the experiment. […]

Cc1cc(-c2ccccc2)c(C(=O)C(=O)Nc2ccc(N3CCN(c4ncc(F)cn4)CC3)cc2)n1C [Example 1, 2-(1,5-dimethyl-3-phenyl-1H-pyrrol-2-yl)-N-(4-(4-(5-fluoropyrimidin-2-yl)piperazin-1-yl)phenyl)-2-oxoacetamide]
antifungal activity against S. aurantiacum (S. aurantiacum): good antifungal activity | antifungal activity against S. boydii (S. boydii): good antifungal activity | antifungal activity against S. dehoogii (S. dehoogii): good antifungal activity | serum galactomannan indices ([1]; 3 mg/kg b.i.d. oral, similar magnitude to untreated animals): correspondingly high | End of study tissue burden (kidney) ([1]; 3 mg/kg b.i.d. oral): 3021 cfu/gm | survival at end of study ([1]; 3 mg/kg b.i.d. oral): 10% | serum galactomannan indices ([1]; 10 mg/kg b.i.d. oral): very low | End of study tissue burden (kidney) ([1]; 10 mg/kg b.i.d. oral): 1114 cfu/gm | survival at end of study ([1]; 10 mg/kg b.i.d. oral): 100% | survival rates compared with the control (FIG. 7) (L. prolificans FMR 3569): improved survival rates
